Results on three molecules are retold here after patent publication US20230357266A1, “PHOTOA[…] AND USES THEREOF” (priority 2022, published 2023).

Data set [1] addresses T1, acetylated BSA (Bos taurus, UniProt P02769).
T1 construct: purchased Promega
Kind of data set: Light-induced covalent labeling of model protein (slot blot, anti-biotin detection), with or without iridium catalyst Ir-9049. The settings on record: 50 μM probe, 0.8 μM acetylated BSA, no catalyst, 20 minutes at 365 nm or 455 nm. Type of data set: biochemical. As to the method: The capacity of these vinyl-extended aryl-azide-based photoreactive groups to undergo activation by either UV or visible 455 nm light in the presence or absence of a catalyst for subsequent covalent crosslinking with neighboring proteins was further evaluated through labeling efficiency of a model protein (FIGS. 4 and 5). […] Plates remained in the dark (control) or irradiated using Efficiency Aggregators biophotoreactor for 20 minutes at either 365 nm (100% UV=^˜80 W) or 455 nm (100%=^˜80 W or 2% 2 W). To evaluate subsequent covalent labeling efficiencies, reactions were subjected to Zeba column clean-up (ThermoFisher) to remove non-crosslinked vinyl-extended-aryl-azide-biotin probes and then spotted on nitrocellulose membranes using a slot blot apparatus. Membranes were then blocked with 5% BSA (Promega) in TBST for 1 hour at room temperature and subsequently incubated overnight at 4° C. with anti-biotin antibody (Invitrogen) in TBST. The next day membranes were washed 3 times with TBST and then incubated for an hour with a secondary anti-goat-HRP-antibody (Jackson laboratories). Following three washes in TBST, membranes were treated with ECL substrate (Promega) and scanned on the chemiluminescence channel to detect BSA labeled with biotin. […]

The conditions of data set [2]: comparator value for simple phenyl-azide; cited from earlier work.

Molecules are shown by their SMILES.

T1 sequence (P02769 25-607): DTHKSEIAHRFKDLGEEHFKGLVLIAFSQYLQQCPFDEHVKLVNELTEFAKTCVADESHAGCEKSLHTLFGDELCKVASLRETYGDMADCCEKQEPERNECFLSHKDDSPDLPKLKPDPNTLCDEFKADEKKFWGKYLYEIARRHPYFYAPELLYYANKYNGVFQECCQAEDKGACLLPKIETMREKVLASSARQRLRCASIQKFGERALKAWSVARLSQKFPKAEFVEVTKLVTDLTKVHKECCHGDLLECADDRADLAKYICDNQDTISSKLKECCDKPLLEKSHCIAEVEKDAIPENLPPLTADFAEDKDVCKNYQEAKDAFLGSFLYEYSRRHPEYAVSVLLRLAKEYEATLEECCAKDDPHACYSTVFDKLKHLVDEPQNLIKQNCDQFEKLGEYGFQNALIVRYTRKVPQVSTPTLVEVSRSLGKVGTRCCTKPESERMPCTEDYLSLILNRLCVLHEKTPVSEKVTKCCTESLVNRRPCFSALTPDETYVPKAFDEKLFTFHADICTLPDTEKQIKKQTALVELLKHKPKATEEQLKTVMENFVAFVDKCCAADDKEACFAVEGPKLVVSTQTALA

In the case of `C/C(=C\C(=O)NCCOCCOCCOCCOCCNC(=O)CCCC[C@@H]1SC[C@@H]2NC(=O)N[C@@H]21)c1ccc2cc(N=[N+]=[N-])ccc2c1` [Compound 9582], the “UV versus 455 nm activation efficiencies (quantitated band volumes)” value in data set [1] was “greater 455 nm activation efficiencies”.

Consider `C/C(=C\C(=O)NCCOCCOCCOCCOCCNC(=O)CCCC[C@@H]1SC[C@@H]2NC(=O)N[C@@H]21)c1ccc2cc(N=[N+]=[N-])c(C#N)cc2c1` [Compound 9616], for which, in data set [1], the “UV versus 455 nm activation efficiencies (quantitated band volumes)” value is on record as “greater 455 nm activation efficiencies”.

On to `[N-]=[N+]=Nc1ccccc1` [phenyl-azide], for which, in data set [2], the λmax is recorded as about 260 nm.
